Measured values as given in BindingDB's records for doi:10.1016/j.bmcl.2003.08.082 (The University of Huddersfield, 2003).

Molecular target: Beta-lactamase (Enterobacter cloacae, UniProt P05364)
Assay: Inhibitor activity against Beta-lactamase, derived from the Gram negative bacteria Enterobacter cloacae at pH 7
Conditions: read-out: kon (M-1-s-1)

Sequence of Beta-lactamase (P05364 whole entry): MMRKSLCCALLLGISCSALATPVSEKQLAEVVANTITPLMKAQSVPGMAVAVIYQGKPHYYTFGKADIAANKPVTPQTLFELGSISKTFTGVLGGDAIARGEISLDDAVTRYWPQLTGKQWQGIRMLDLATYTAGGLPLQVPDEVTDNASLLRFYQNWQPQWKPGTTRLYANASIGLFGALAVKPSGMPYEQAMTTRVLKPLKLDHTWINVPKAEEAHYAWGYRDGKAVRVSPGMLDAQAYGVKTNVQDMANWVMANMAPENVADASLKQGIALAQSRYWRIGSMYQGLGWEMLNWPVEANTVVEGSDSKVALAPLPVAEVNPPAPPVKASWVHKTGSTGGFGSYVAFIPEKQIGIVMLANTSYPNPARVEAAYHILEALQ

Compound | kon
O=C(c1ccccc1)N1CCS1(=O)=O | 163 M⁻¹ s⁻¹
CC(C)C1CN(C(=O)c2ccccc2)S1(=O)=O (configuration not stated) | 0.07 M⁻¹ s⁻¹
